{"source": "patent US5446026A", "about": "“Potent non-opiate analgesic” (Advanced Peptides & Biotechnology Sciences, priority 1993, dated 1995)", "key": {"[1]": {"details": "periaqueductal gray administration; cited from earlier work"}, "[2]": {"test": "analgesia after subcutaneous injection (tail-flick and hot plate tests)", "format": "in vivo, rodent"}, "[3]": {"system": "bone", "test": "uptake of calcium into bone", "details": "under the conditions tested", "excerpt": "(§1) Studies of analgesia in monkeys is underway and following animal toxicity human trials should be undertaken. […] We would expect that this peptide, like other peptide analogs of naturally occurring modulatory substances, would be potent in quite low (milligram) doses in humans and should be able to alleviate quite severe pain even in these low doses. [drawing 1] R1, R2 =OH: Cholic Acid 89.010a R1 =H, R2 =OH: Chenodeoxycholic Acid 89.010b R1 =OH, R2 =H: Deoxycholic Acid [drawing 2] PEPTIDE-Pro-Arg-Thr-Asn-Thr-Gly-Ser-Gly-Thr-Pro-amide."}, "[4]": {"details": "cited from earlier work"}, "[5]": {"details": "rats; cited from earlier work"}, "[6]": {"test": "observation of rodent behavior, righting reflex, inclined plane", "format": "in vivo", "excerpt": "as §1"}, "[7]": {"target": "T1, calcitonin receptor (Homo sapiens, UniProt P30988)", "T1 sequence (P30988 25-474)": "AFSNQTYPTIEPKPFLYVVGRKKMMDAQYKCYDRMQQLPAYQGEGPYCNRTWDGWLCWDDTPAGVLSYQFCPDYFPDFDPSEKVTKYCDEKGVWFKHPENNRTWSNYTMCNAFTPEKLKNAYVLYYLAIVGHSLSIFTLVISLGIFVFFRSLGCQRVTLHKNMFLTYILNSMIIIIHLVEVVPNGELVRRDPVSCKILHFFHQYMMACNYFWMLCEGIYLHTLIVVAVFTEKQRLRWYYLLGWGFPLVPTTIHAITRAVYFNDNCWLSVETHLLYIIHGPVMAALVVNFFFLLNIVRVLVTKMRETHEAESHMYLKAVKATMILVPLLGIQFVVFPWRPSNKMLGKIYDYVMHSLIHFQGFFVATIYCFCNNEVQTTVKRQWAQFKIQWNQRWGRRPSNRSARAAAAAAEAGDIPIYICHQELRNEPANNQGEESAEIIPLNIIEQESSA", "test": "in vitro receptor binding, displacement of 125-I calcitonin"}, "[8]": {"test": "three classical tests of rodent analgesia (hot plate, paw pressure, tail flick)", "format": "in vivo", "details": "paw pressure and tail flick tests (FIG. 4)"}, "[9]": {"target": "T2, 69 Kd receptor molecule (calcitonin receptor) (Homo sapiens, UniProt P30988)", "T2 sequence (P30988 25-474)": "T1 sequence (P30988 25-474)", "test": "crosslinking / SDS-PAGE in vitro receptor binding"}}, "note": "Where two headings read alike, the source gives them in different places. No end group written: not given here."}
{"compound": "CC(C)C[C@H](NC(=O)[C@H](Cc1ccccc1)NC(=O)CNC(=O)CNC(=O)[C@@H](N)Cc1ccc(O)cc1)C(=O)O", "note": "[enkephalin]", "values": [{"measurement": "analgesia", "setting": "[1]", "result": "weak and transient"}]}
{"compound": "CN1CC[C@]23c4c5ccc(O)c4O[C@H]2[C@@H](O)C=C[C@H]3[C@H]1C5", "note": "[morphine, reference compound]", "values": [{"measurement": "analgesia at two hours, the last time point tested", "setting": "[2]", "result": "has already returned to baseline"}]}
{"compound": "CC(C)C[C@H](NC(=O)[C@H](CCCCN)NC(=O)CNC(=O)[C@H](CC(C)C)NC(=O)[C@@H](NC(=O)[C@@H]1CSSC[C@H](N)C(=O)N[C@@H](CO)C(=O)N[C@@H](CC(N)=O)C(=O)N[C@@H](CC(C)C)C(=O)N[C@@H](CO)C(=O)N[C@@H]([C@@H](C)O)C(=O)N1)C(C)C)C(=O)N[C@@H](CO)C(=O)N[C@@H](CCC(N)=O)C(=O)N[C@@H](CCC(=O)O)C(=O)N[C@@H](CC(C)C)C(=O)N[C@@H](Cc1c[nH]cn1)C(=O)N[C@@H](CCCCN)C(=O)N[C@@H](CC(C)C)C(=O)N[C@@H](CCC(N)=O)C(=O)N[C@H](C(=O)N[C@@H](Cc1ccc(O)cc1)C(=O)N1CCC[C@H]1C(=O)N[C@@H](CCCNC(=N)N)C(=O)N[C@H](C(=O)N[C@@H](CC(N)=O)C(=O)N[C@H](C(=O)NCC(=O)N[C@@H](CO)C(=O)NCC(=O)N[C@H](C(=O)N1CCC[C@H]1C(N)=O)[C@@H](C)O)[C@@H](C)O)[C@@H](C)O)[C@@H](C)O", "note": "[salmon calcitonin, reference compound]", "values": [{"measurement": "uptake of calcium into bone", "setting": "[3]", "result": "profound response"}]}
{"compound": "Calcitonin", "values": [{"measurement": "penetration into the brain", "setting": "[4]; human, in vivo", "result": "does not penetrate into the brain"}, {"measurement": "side effects", "setting": "[4]; human, in vivo", "result": "No important side effects"}, {"measurement": "analgesic activity", "setting": "[4]; terminal cancer patients, injection into the subarachnoid space", "result": "extremely potent analgesic"}, {"measurement": "analgesic activity", "setting": "[5]", "result": "extremely potent analgesic"}]}
{"compound": "Pro-Arg-Thr-Asn-Thr-Gly-Ser-Gly-Thr-Pro-NH2 (PRTNTGSGTP-NH2) [PD89.010b, modified calcitonin decapeptide]", "values": [{"measurement": "behavior and balance on an inclined plane", "setting": "[6]; in vivo", "result": "remained unchanged"}, {"measurement": "righting reflex", "setting": "[6]; in vivo", "result": "remained unchanged"}, {"measurement": "behavioral incapacitation effects", "setting": "[6]; trained observers of rodent behavior", "result": "no obvious behavioral incapacitation effects"}, {"measurement": "in vitro receptor binding as human calcitonin analog", "setting": "[7]; displacement of 125-I human calcitonin (FIG. 2A)", "result": "potent"}, {"measurement": "in vitro receptor binding as salmon calcitonin analog", "setting": "[7]; displacement of 125I salmon calcitonin (FIG. 2B)", "result": "weak"}, {"measurement": "uptake of calcium into bone", "setting": "[3]", "result": "does not appear to enhance"}, {"measurement": "analgesic responses", "setting": "[8]", "result": "significant and profound analgesic responses"}, {"measurement": "onset of analgesia compared with morphine", "setting": "[2]", "result": "much more rapid onset of analgesia"}, {"measurement": "analgesia, tail-flick test", "setting": "[2]; one quarter the molar equivalent of morphine (FIG. 5A)", "result": "profound and long lived analgesia"}, {"measurement": "analgesia, hot plate test", "setting": "[2]; one quarter the molar equivalent of morphine (FIG. 5B)", "result": "profound and long lived analgesia"}, {"measurement": "analgesia at two hours, the last time point tested", "setting": "[2]", "result": "still is showing significant analgesia"}, {"measurement": "displacement of iodinated salmon calcitonin from the 69 Kd receptor molecule", "setting": "[9]; at 1 μM (FIG. 3A)", "result": "completely displaces"}, {"measurement": "displacement of iodinated human calcitonin from the 69 Kd receptor molecule", "setting": "[9]; at 1 μM (FIG. 3B)", "result": "completely displaces"}]}
